Assay results: paper PMC3608401 (FEBS letters, 2013)

What was measured:
[1] = biological target: T1, protein from Thermoanaerobacter italicus (clade 1) (Thermoanaerobacter thermocopriae, UniProt D3T426); assay: colorimetric assay of α-galacturonidase activity; format: biochemical; conditions: cofactors NAD+, Mn2+, DTT as for GH4 enzymes
T1 sequence (D3T426 1-453): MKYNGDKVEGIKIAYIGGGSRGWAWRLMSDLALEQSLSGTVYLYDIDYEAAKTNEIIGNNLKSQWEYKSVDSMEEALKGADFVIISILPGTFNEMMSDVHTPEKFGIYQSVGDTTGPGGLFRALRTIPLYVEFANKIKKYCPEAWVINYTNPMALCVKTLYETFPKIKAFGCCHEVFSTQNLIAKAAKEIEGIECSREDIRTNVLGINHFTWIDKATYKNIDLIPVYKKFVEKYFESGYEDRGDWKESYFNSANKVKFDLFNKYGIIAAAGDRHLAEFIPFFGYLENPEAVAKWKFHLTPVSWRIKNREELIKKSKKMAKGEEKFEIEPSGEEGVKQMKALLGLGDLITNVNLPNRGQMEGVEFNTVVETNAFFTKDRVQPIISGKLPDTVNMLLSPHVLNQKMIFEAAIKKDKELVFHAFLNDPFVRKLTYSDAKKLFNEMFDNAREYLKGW

[2] = biological target: T2, Clostridium phytofermentans Cphy3396 (clade 3) (Lachnoclostridium phytofermentans, UniProt A9KTB9); assay: colorimetric assay of α-galacturonidase activity; format: biochemical; conditions: cofactors NAD+, Mn2+, DTT as for GH4 enzymes
T2 sequence (A9KTB9 1-466): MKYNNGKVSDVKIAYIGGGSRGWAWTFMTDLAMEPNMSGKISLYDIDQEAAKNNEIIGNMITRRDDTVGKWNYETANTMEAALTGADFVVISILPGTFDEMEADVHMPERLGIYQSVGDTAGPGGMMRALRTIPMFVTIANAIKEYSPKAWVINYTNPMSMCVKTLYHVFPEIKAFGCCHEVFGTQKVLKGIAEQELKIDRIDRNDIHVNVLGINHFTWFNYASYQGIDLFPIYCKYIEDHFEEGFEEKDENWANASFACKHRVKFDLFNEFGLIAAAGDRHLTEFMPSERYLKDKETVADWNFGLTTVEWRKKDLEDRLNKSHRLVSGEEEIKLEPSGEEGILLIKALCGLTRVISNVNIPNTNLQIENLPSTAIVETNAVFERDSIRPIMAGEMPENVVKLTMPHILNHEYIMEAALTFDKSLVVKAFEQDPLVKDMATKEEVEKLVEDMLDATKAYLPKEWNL

[3] = substrate: O=C(O)[C@H]1O[C@H](Oc2ccc([N+](=O)[O-])cc2)[C@H](O)[C@@H](O)[C@H]1O; assay: discontinuous colorimetric assay, p-nitrophenol release; format: biochemical, Bacillus subtilis; conditions: 25 mM Tris-HCl pH 7.5, 0.1 mM NAD+, 1 mM MnCl2, 5 mM DTT, ~35-38 °C

O=C(O)[C@H]1O[C@H](Oc2ccc([N+](=O)[O-])cc2)[C@H](O)[C@@H](O)[C@H]1O [pNPαGalUA]
colorimetric assay of α-galacturonidase activity [1]: pNPαGalUA served as substrate in all assays of protein activity | colorimetric assay of α-galacturonidase activity [2]: pNPαGalUA served as substrate in all assays of protein activity

B1: LplD (LplDhis6) (Bacillus subtilis subsp. subtilis str. 168) (protein)
chain: MFHISTLDQIKIAYIGGGSQGWARSLMSDLSIDERMSGTVALYDLDFEAAQKNEVIGNHSGNGRWRYEAVSTLKKALSAADIVIISILPGSLDDMEVDVHLPERCGIYQSVGDTVGPGGIIRGLRAVPIFAEIARAIRDYAPESWVINYTNPMSVCTRVLYKVFPGIKAIGCCHEVFGTQKLLAEMVTERLGIEVPRREDIRVNVLGINHFTWITKASYRHIDLLPIFREFSAHYGESGYELEGECWRDSVFCSAHRVAFDLFETYGAIPAAGDRHLAEFLPGPYLKQPEVWKFHLTPISFRKQDRAEKRQETERLIVQQRGVAEKASGEEGVNIIAALLGLGELVTNVNMPNQGQVLNLPIQAIVETNAFITRNRVQPILSGALPKGVEMLAARHISNQEAVADAGLTKDTGLAFQAFLNDPLVQIDRSDAEQLFNDMLQCIMQS
Km [3]: 0.62 ± 0.11 µM | kcat [3]: 3.6 s⁻¹
